Tests used:
[1] = target: T1, HCV polymerase 1B (Δ21 NS5B, BK) (Hepatitis C virus genotype 1b, UniProt P26663); assay: biochemical
T1 construct: 20 to 50 nM Δ21 NS5B
How it was run: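 Δ21 NS5B (genotype 1b, BK […]) preincubated 15 min RT with inhibitor, 2 mM MnCl2, pH 7.4, 60–125 μM GTP; started with 20 μM CTP/ATP, 1 μM 3H-UTP, 5 nM template RNA, run 2–4 h RT. Spermine-precipitated RNA filter-captured, scintillation counted; IC50 from tight-binding (Morrison) fit.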

[2] = test system: genotype 1a-H77 subgenomic replicon cell line; assay: microbe, parasite or virus in culture; format: cell-based, HCV; details: Hepatitis C virus, read-out: EC50 1a
[3] = test system: genotype 1b-Con1 subgenomic replicon cell line; assay: microbe, parasite or virus in culture; format: cell-based, HCV; details: Hepatitis C virus, read-out: EC50 1b
[4] = target: T2, HCV polymerase 1A (Δ21 NS5B, H77) (Hepatitis C virus genotype 1a, UniProt P27958); assay: biochemical; details: IC50 1a
T2 construct: 20 to 50 nM Δ21 NS5B
T2 sequence (P27958 2421-2990, stated change not applied): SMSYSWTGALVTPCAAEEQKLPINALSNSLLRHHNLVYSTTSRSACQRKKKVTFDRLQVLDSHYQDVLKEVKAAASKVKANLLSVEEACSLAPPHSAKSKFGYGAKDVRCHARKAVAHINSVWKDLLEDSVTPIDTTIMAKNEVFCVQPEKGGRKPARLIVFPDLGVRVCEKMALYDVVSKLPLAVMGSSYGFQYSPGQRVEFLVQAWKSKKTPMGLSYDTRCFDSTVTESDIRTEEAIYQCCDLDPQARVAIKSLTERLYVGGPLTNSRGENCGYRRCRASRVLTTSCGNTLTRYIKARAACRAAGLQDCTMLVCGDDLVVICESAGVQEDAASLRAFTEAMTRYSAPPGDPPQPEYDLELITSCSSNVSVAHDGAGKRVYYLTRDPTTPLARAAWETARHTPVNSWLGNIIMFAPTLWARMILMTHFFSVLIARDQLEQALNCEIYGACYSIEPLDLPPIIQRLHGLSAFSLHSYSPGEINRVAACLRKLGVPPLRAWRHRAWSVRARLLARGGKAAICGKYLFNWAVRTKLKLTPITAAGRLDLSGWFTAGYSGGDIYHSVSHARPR
How it was run: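 Radiometric assay with Δ21 NS5B (H77): 20 μM CTP, 20 μM ATP, 1 μM ^3H-UTP, 5 nM template RNA, 2–4 h at room temperature. RNA precipitated with spermine, filter-captured and counted. IC50 from non-linear fit of retained cpm vs inhibitor concentration (tight-binding equation).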

T1 sequence (P26663 2420-2989, stated change not applied): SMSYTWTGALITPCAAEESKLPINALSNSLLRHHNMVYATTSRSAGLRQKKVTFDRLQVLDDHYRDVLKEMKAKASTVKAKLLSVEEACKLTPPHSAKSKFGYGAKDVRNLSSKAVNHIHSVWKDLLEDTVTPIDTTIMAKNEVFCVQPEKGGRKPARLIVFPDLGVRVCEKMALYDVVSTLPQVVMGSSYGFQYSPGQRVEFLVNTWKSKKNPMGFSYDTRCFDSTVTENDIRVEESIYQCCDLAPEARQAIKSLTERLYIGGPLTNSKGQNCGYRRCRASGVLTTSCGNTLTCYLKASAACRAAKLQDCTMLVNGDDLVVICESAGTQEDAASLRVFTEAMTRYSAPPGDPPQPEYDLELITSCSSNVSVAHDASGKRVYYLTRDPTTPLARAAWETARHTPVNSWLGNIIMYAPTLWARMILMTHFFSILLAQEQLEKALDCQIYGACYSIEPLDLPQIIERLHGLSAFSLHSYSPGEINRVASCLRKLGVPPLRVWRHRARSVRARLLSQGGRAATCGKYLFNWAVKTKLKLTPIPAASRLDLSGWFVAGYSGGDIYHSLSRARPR

SMILES | IC50 [1] | EC50 [2] | EC50 [3] | IC50 [4]
CC(C)(C)c1cc(N2CCC(=O)NC2=O)cc(NC(=O)c2ccc(NS(C)(=O)=O)cc2)c1O [IA-L4-1.3, N-(3-tert-butyl-5-(2,4-dioxotetrahydropyrimidin-1(2H)-yl)-2-hydroxyphenyl)-4-(methylsulfon amido)benzamide] | 0.1 to 1 µM | > 1 µM | > 1 µM | 0.1 to 1 µM
CC(C)(C)c1cc(N2CCC(=O)NC2=O)cc(NC(=O)c2ccc(CS(C)(=O)=O)cc2)c1O [IA-L4-1.4, N-(3-tert-butyl-5-(2,4-dioxotetrahydropyrimidin-1(2H)-yl)-2-hydroxyphenyl)-4-(methylsulfonylmethyl)benzamide] | > 1 µM | > 1 µM | > 1 µM | > 1 µM
COc1c(N(C)C(=O)c2ccc(NS(C)(=O)=O)cc2)cc(N2CCC(=O)NC2=O)cc1C(C)(C)C [IA-L4-1.7, N-(3-tert-butyl-5-(2,4-dioxotetrahydropyrimidin-1(2H)-yl)-2-methoxyphenyl)-N-methyl-4-(methylsulfonamido)benzamide] | > 1 µM | > 1 µM | > 1 µM | 0.1 to 1 µM
COc1c(NC(=O)c2ccccc2)cc(N2CCC(=O)NC2=O)cc1C(C)(C)C [IA-L4-1.8, N-(3-tert-butyl-5-(2,4-dioxotetrahydropyrimidin-1(2H)-yl)-2-methoxyphenyl)benzamide] | 0.1 to 1 µM | > 1 µM | 0.1 to 1 µM | > 1 µM
COc1cc(NS(C)(=O)=O)ccc1C(=O)Nc1cc(N2CCC(=O)NC2=O)cc(C(C)(C)C)c1OC [IA-L4-1.11, N-(3-tert-butyl-5-(2,4-dioxotetrahydropyrimidin-1(2H)-yl)-2-methoxyphenyl)-2-methoxy-4-(methylsulfonamido)benzamide] | 0.01 to 0.1 µM | 0.1 to 1 µM | 0.01 to 0.1 µM | < 0.01 µM
COc1c(NC(=O)c2ccc(NS(C)(=O)=O)cc2Cl)cc(N2CCC(=O)NC2=O)cc1C(C)(C)C [IA-L4-1.12, N-(3-tert-butyl-5-(2,4-dioxotetrahydropyrimidin-1(2H)-yl)-2-methoxyphenyl)-2-chloro-4-(methylsulfonamido)benzamide] | 0.01 to 0.1 µM | 0.1 to 1 µM | 0.1 to 1 µM | 0.01 to 0.1 µM
COc1c(COc2ccc(NS(C)(=O)=O)cc2)cc(N2CCC(=O)NC2=O)cc1C(C)(C)C [IA-L6-1.1, N-(4-(3-tert-butyl-5-(2,4-dioxotetrahydropyrimidin-1(2H)-yl)-2-methoxybenzyloxy)phenyl)methanesulfonamide] | 0.1 to 1 µM | 0.1 to 1 µM | 0.01 to 0.1 µM | 0.01 to 0.1 µM
COc1c(CNc2ccc(NS(C)(=O)=O)cc2)cc(N2CCC(=O)NC2=O)cc1C(C)(C)C [IA-L9-1.4, N-(4-(3-tert-butyl-5-(2,4-dioxotetrahydropyrimidin-1(2H)-yl)-2-methoxybenzylamino)phenyl)methanesulfonamide] | 0.1 to 1 µM | > 1 µM | 0.1 to 1 µM | 0.01 to 0.1 µM
COc1c(C(=O)Cc2ccc(NS(C)(=O)=O)cc2)cc(N2CCC(=O)NC2=O)cc1C(C)(C)C [IA-L11-1.1, N-(4-(2-(3-tert-butyl-5-(2,4-dioxotetrahydropyrimidin-1(2H)-yl)-2-methoxyphenyl)-2-oxoethyl)phenyl)methanesulfonamide] | 0.01 to 0.1 µM | 0.1 to 1 µM | 0.01 to 0.1 µM | 0.01 to 0.1 µM
COc1c(CC(=O)c2ccc(NS(C)(=O)=O)cc2)cc(N2CCC(=O)NC2=O)cc1C(C)(C)C [IA-L12-1.1, N-(4-(2-(3-tert-butyl-5-(2,4-dioxotetrahydropyrimidin-1(2H)-yl)-2-methoxyphenyl)acetyl)phenyl)methanesulfonamide] | 0.01 to 0.1 µM | 0.1 to 1 µM | 0.01 to 0.1 µM | 0.01 to 0.1 µM
COc1c(-c2ccc(/C=N/NS(C)(=O)=O)cc2)cc(-n2ccc(=O)[nH]c2=O)cc1C(C)(C)C [IB-L0-1.1, (E)-N′-((3′-tert-butyl-5′-(2,4-dioxo-3,4-dihydropyrimidin-1(2H)-yl)-2′-methoxybiphenyl-4-yl)methylene)methanesulfonohydrazide] | < 0.01 µM | 0.01 to 0.1 µM | 0.01 to 0.1 µM | < 0.01 µM
COc1c(-c2ccc(NS(C)(=O)=O)cc2)cc(-n2ccc(=O)[nH]c2=O)cc1C(C)(C)C [IB-L0-1.2, N-(3′-tert-butyl-5′-(2,4-dioxo-3,4-dihydropyrimidin-1(2H)-yl)-2′-methoxybiphenyl-4-yl)methanesulfonamide] | 0.1 to 1 µM | > 1 µM | > 1 µM | 0.1 to 1 µM
COc1c(-c2ccc(/C=N/NS(C)(=O)=O)c(F)c2)cc(-n2ccc(=O)[nH]c2=O)cc1C(C)(C)C [IB-L0-1.3, (E)-N′-((3′-tert-butyl-5′-(2,4-dioxo-3,4-dihydropyrimidin-1(2H)-yl)-3-fluoro-2′-methoxybiphenyl-4-yl)methylene)methanesulfonohydrazide] | 0.01 to 0.1 µM | 0.1 to 1 µM | 0.01 to 0.1 µM | 0.01 to 0.1 µM
COc1c(-c2ccc(CCNS(C)(=O)=O)cc2)cc(-n2ccc(=O)[nH]c2=O)cc1C(C)(C)C [IB-L0-1.4, N-(2-(3′-tert-butyl-5′-(2,4-dioxo-3,4-dihydropyrimidin-1(2H)-yl)-2′-methoxybiphenyl-4-yl)ethyl)methanesulfonamide] | 0.01 to 0.1 µM | 0.1 to 1 µM | 0.01 to 0.1 µM | 0.01 to 0.1 µM
COc1c(-c2ccc(/C(C)=N/NS(C)(=O)=O)cc2)cc(-n2ccc(=O)[nH]c2=O)cc1C(C)(C)C [IB-L0-1.5, (E)-N′-(1-(3′-tert-butyl-5′-(2,4-dioxo-3,4-dihydropyrimidin-1(2H)-yl)-2′-methoxybiphenyl-4-yl)ethylidene)methanesulfonohydrazide] | 0.01 to 0.1 µM | 0.01 to 0.1 µM | 0.01 to 0.1 µM | 0.01 to 0.1 µM
COc1ccc(-c2cc(-n3ccc(=O)[nH]c3=O)cc(C(C)(C)C)c2OC)cc1/C=N/NS(C)(=O)=O [IB-L0-1.6, (E)-N′-((3′-tert-butyl-5′-(2,4-dioxo-3,4-dihydropyrimidin-1(2H)-yl)-2′,4-dimethoxybiphenyl-3-yl)methylene)methanesulfonohydrazide] | 0.1 to 1 µM | > 1 µM | 0.1 to 1 µM | 0.1 to 1 µM
COc1c(-c2ccc(NC(=O)NS(C)(=O)=O)cc2)cc(-n2ccc(=O)[nH]c2=O)cc1C(C)(C)C [IB-L0-1.7, N-(3′-tert-butyl-5′-(2,4-dioxo-3,4-dihydropyrimidin-1(2H)-yl)-2′-methoxybiphenyl-4-ylcarbamoyl)methanesulfonamide] | 0.01 to 0.1 µM | > 1 µM | 0.1 to 1 µM | 0.01 to 0.1 µM
COc1c(-c2cccc(/C(C)=N/NS(C)(=O)=O)c2)cc(-n2ccc(=O)[nH]c2=O)cc1C(C)(C)C [IB-L0-1.9, (E)-N′-(1-(3′-tert-butyl-5′-(2,4-dioxo-3,4-dihydropyrimidin-1(2H)-yl)-2′-methoxybiphenyl-3-yl)ethylidene)methanesulfonohydrazide] | 0.1 to 1 µM | > 1 µM | > 1 µM | 0.1 to 1 µM
COc1c(-c2cccc(/C=N/NS(C)(=O)=O)c2)cc(-n2ccc(=O)[nH]c2=O)cc1C(C)(C)C [IB-L0-1.10, (E)-N′-((3′-tert-butyl-5′-(2,4-dioxo-3,4-dihydropyrimidin-1(2H)-yl)-2′-methoxybiphenyl-3-yl)methylene)methanesulfonohydrazide] | 0.1 to 1 µM | > 1 µM | > 1 µM | 0.1 to 1 µM
CC(C)(C)c1cc(-c2ccc3c(c2)CC/C3=N\NS(C)(=O)=O)cc(-n2ccc(=O)[nH]c2=O)c1 [IB-L0-2.7, (E)-N′-(5-(3-tert-butyl-5-(2,4-dioxo-3,4-dihydropyrimidin-1(2H)-yl)phenyl)-2,3-dihydro-1H-inden-1-ylidene)methanesulfonohydrazide] | 0.01 to 0.1 µM | 0.1 to 1 µM | 0.01 to 0.1 µM | 0.01 to 0.1 µM
COc1c(-c2ccc3c(CNS(C)(=O)=O)csc3c2)cc(-n2ccc(=O)[nH]c2=O)cc1C(C)(C)C [IB-L0-2.11, N-((6-(3-tert-butyl-5-(2,4-dioxo-3,4-dihydropyrimidin-1(2H)-yl)-2-methoxyphenyl)benzo[b]thiophen-3-yl)methyl)methanesulfonamide] | < 0.01 µM | 0.01 to 0.1 µM | < 0.01 µM | < 0.01 µM
COc1c(-c2ccc3c(c2)CCC3(F)CNS(C)(=O)=O)cc(-n2ccc(=O)[nH]c2=O)cc1C(C)(C)C (centres unmarked) [IB-L0-2.12, N-((5-(3-tert-butyl-5-(2,4-dioxo-3,4-dihydropyrimidin-1(2H)-yl)-2-methoxyphenyl)-1-fluoro-2,3-dihydro-1H-inden-1-yl)methyl)methanesulfonamide] | 0.01 to 0.1 µM | 0.01 to 0.1 µM | < 0.01 µM | < 0.01 µM
COc1c(-c2ccc3c(c2)CC=C3CNS(C)(=O)=O)cc(-n2ccc(=O)[nH]c2=O)cc1C(C)(C)C [IB-L0-2.13, N-((6-(3-tert-butyl-5-(2,4-dioxo-3,4-dihydropyrimidin-1(2H)-yl)-2-methoxyphenyl)-1H-inden-3-yl)methyl)methanesulfonamide] | 0.01 to 0.1 µM | 0.01 to 0.1 µM | < 0.01 µM | < 0.01 µM

— patent US8415351B2 (priority 2007, dated 2013)
